ChEMBL document CHEMBL1201861, “Genomics of Drug Sensitity in Cancer screening data, Wellcome Trust Sanger Institute”

Experiments:
Test in all cases: cells
Assay type in all cases: functional, cell-based, Homo sapiens
[1] = system: EKVX;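 note: growth inhibition of human EKVX cells, read out with a cell viability assay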
Description: SANGER: Inhibition of human EKVX cell growth in a cell viability assay.

[2] = system: KINGS-1;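 note: cell viability assay measuring suppression of KINGS-1 cell growth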
Description: SANGER: Inhibition of human KINGS-1 cell growth in a cell viability assay.

[3] = system: MFH-ino;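 note: growth inhibition of human MFH-ino cells, read out by a cell viability assay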
Description: SANGER: Inhibition of human MFH-ino cell growth in a cell viability assay.

[4] = system: MOLT-16;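 note: growth inhibition of human MOLT-16 cells, read out with a cell viability assay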
Description: SANGER: Inhibition of human MOLT-16 cell growth in a cell viability assay.

[5] = system: DOHH-2;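 note: growth inhibition of human DOHH-2 cells, read out with a cell viability assay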
Description: SANGER: Inhibition of human DOHH-2 cell growth in a cell viability assay.

[6] = system: HT-144
Description: SANGER: Inhibition of human HT-144 cell growth in a cell viability assay.

[7] = system: RXF 393;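 note: growth inhibition of human RXF 393 cells, read out with a cell viability assay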
Description: SANGER: Inhibition of human RXF393 cell growth in a cell viability assay.

[8] = system: ES4;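 note: growth inhibition of human ES4 cells, read out by a cell viability assay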
Description: SANGER: Inhibition of human ES4 cell growth in a cell viability assay.

[9] = system: SNB-75;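 note: cell viability assay measuring growth inhibition of human SNB-75 cells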
Description: SANGER: Inhibition of human SNB75 cell growth in a cell viability assay.

[10] = system: HCC1187;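 note: growth inhibition of HCC1187 cells, read out with a cell viability assay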
Description: SANGER: Inhibition of human HCC1187 cell growth in a cell viability assay.

[11] = system: D-392MG; details: d-392mg
[12] = system: DEL;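 note: growth inhibition of the human DEL cell line, read out with a cell viability assay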
Description: SANGER: Inhibition of human DEL cell growth in a cell viability assay.

[13] = system: SW684;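 note: growth inhibition of human SW684 cells, measured by a cell viability assay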
Description: SANGER: Inhibition of human SW684 cell growth in a cell viability assay.

[14] = system: EC-GI-10
Description: SANGER: Inhibition of human EC-GI-10 cell growth in a cell viability assay.

[15] = system: C2BBe1;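 note: growth inhibition of C2BBe1 cells, read out through a viability assay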
Description: SANGER: Inhibition of human C2BBe1 cell growth in a cell viability assay.

[16] = system: NCI-H1648;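 note: cell viability assay measuring inhibition of NCI-H1648 cell growth, from the Sanger screening data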
Description: SANGER: Inhibition of human NCI-H1648 cell growth in a cell viability assay.

[17] = system: LB373-MEL-D;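 note: growth inhibition of the cell line, read out in a cell viability assay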
Description: SANGER: Inhibition of human LB373-MEL-D cell growth in a cell viability assay.

[18] = system: LS-1034
Description: SANGER: Inhibition of human LS-1034 cell growth in a cell viability assay.

[19] = system: RH-1;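 note: growth inhibition of human RH-1 cells, read out with a cell viability assay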
Description: SANGER: Inhibition of human RH-1 cell growth in a cell viability assay.

[20] = system: no-10;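 note: growth inhibition of no-10 cells, read out with a cell viability assay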
Description: SANGER: Inhibition of human no-10 cell growth in a cell viability assay.

[21] = system: IST-SL1;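 note: growth inhibition of human IST-SL1 cells, read out with a cell viability assay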
Description: SANGER: Inhibition of human IST-SL1 cell growth in a cell viability assay.

[22] = system: COLO-320-HSR;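 note: growth inhibition of COLO-320-HSR cells, determined with a cell viability assay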
Description: SANGER: Inhibition of human COLO-320-HSR cell growth in a cell viability assay.

[23] = system: BB30-HNC;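 note: growth inhibition of the cultured cell line, read out by a cell viability assay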
Description: SANGER: Inhibition of human BB30-HNC cell growth in a cell viability assay.

[24] = system: NCI-H1581;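 note: cell growth inhibition read out by a viability assay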
Description: SANGER: Inhibition of human NCI-H1581 cell growth in a cell viability assay.

[25] = system: J-RT3-T3-5;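 note: cell viability assay measuring growth inhibition of human J-RT3-T3-5 cells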
Description: SANGER: Inhibition of human J-RT3-T3-5 cell growth in a cell viability assay.

[26] = system: CCRF-CEM;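 note: inhibition of CCRF-CEM cell growth, measured by a cell viability assay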
Description: SANGER: Inhibition of human CCRF-CEM cell growth in a cell viability assay.

[27] = system: RKO;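 note: growth inhibition of human RKO cells, read out with a cell viability assay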
Description: SANGER: Inhibition of human RKO cell growth in a cell viability assay.

[28] = system: COLO-829
Description: SANGER: Inhibition of human COLO-829 cell growth in a cell viability assay.

[29] = system: EW-18;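 note: growth inhibition of EW-18 cells, read out by a cell viability assay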
Description: SANGER: Inhibition of human EW-18 cell growth in a cell viability assay.

[30] = system: NB5;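 note: growth inhibition of NB5 cells, read out as cell viability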
Description: SANGER: Inhibition of human NB5 cell growth in a cell viability assay.

[31] = system: NOMO-1;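 note: growth inhibition of human NOMO-1 cells measured by a cell viability assay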
Description: SANGER: Inhibition of human NOMO-1 cell growth in a cell viability assay.

[32] = system: DB
Description: SANGER: Inhibition of human DB cell growth in a cell viability assay.

[33] = system: KARPAS-45;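 note: inhibition of cell line growth, read out through a viability assay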
Description: SANGER: Inhibition of human KARPAS-45 cell growth in a cell viability assay.

[34] = system: GR-ST
Description: SANGER: Inhibition of human GR-ST cell growth in a cell viability assay.

[35] = system: A704;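 note: growth inhibition of human A704 cells, read out with a cell viability assay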
Description: SANGER: Inhibition of human A704 cell growth in a cell viability assay.

[36] = system: MMAC-SF;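 note: growth inhibition of human MMAC-SF cells, read out with a cell viability assay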
Description: SANGER: Inhibition of human MMAC-SF cell growth in a cell viability assay.

[37] = system: KE-37;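 note: growth inhibition of KE-37 cells, read out with a cell viability assay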
Description: SANGER: Inhibition of human KE-37 cell growth in a cell viability assay.

[38] = system: KALS-1;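 note: growth inhibition of KALS-1 cells, determined with a cell viability assay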
Description: SANGER: Inhibition of human KALS-1 cell growth in a cell viability assay.

[39] = system: JVM-3;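 note: growth inhibition of human JVM-3 cells, read out with a cell viability assay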
Description: SANGER: Inhibition of human JVM-3 cell growth in a cell viability assay.

[40] = system: HCC2218;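 note: cell viability assay read-out, with IC50 given as the concentration that inhibits growth of the cell line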
Description: SANGER: Inhibition of human HCC2218 cell growth in a cell viability assay.

[41] = system: A101D;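 note: growth inhibition of the cell line, measured with a viability assay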
Description: SANGER: Inhibition of human A101D cell growth in a cell viability assay.

[42] = system: KGN;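 note: growth inhibition of KGN cells, read out with a cell viability assay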
Description: SANGER: Inhibition of human KGN cell growth in a cell viability assay.

[43] = system: Ramos-2G6-4C10;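 note: growth inhibition of the cell line, measured by a cell viability read-out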
Description: SANGER: Inhibition of human Ramos-2G6-4C10 cell growth in a cell viability assay.

[44] = system: MN-60;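 note: growth inhibition of the MN-60 cell line, determined with a cell viability assay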
Description: SANGER: Inhibition of human MN-60 cell growth in a cell viability assay.

[45] = system: NCI-H1355;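 note: growth inhibition of human NCI-H1355 cells, read out by a cell viability assay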
Description: SANGER: Inhibition of human NCI-H1355 cell growth in a cell viability assay.

[46] = system: SF-268;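 note: growth inhibition of SF-268 cells determined with a cell viability assay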
Description: SANGER: Inhibition of human SF268 cell growth in a cell viability assay.

[47] = system: A253 cell line; details: Homo sapiens, A253;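 note: growth inhibition of A253 cells, read out with a cell viability assay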
Description: SANGER: Inhibition of human A253 cell growth in a cell viability assay.

[48] = system: SNU1; details: Homo sapiens, SNU1;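 note: growth inhibition of human NCI-SNU-1 cells, measured with a cell viability assay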
Description: SANGER: Inhibition of human NCI-SNU-1 cell growth in a cell viability assay.

[49] = system: EW-24; details: Homo sapiens, EW-24;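 note: human EW-24 cancer cell line, growth inhibition read out via a cell viability assay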
Description: SANGER: Inhibition of human EW-24 cell growth in a cell viability assay.

Question: With CISPLATIN as the molecule, how does the IC50 ([1]; ekvx) read?
Answer: The IC50 was 485 µM.

Question: What about the IC50 ([2]; kings-1) of the same molecule?
Answer: Its IC50 is 42.8 µM.

Question: And the IC50 ([3]; mfh-ino)?
Answer: The IC50 was 1340 µM.

Question: And the IC50 ([4]; molt-16)?
Answer: The IC50 was 8.36 µM.

Question: What about the IC50 ([5]; dohh-2) of the same molecule?
Answer: Its IC50 is 4.23 µM.

Question: What about the IC50 ([6]; ht-144) of the same molecule?
Answer: Its IC50 is 3.58 µM.

Question: What about the IC50 ([7]; rxf 393) of the same molecule?
Answer: The IC50 was 7.86 µM.

Question: And the IC50 ([8]; es4)?
Answer: The IC50 was 1.6 µM.

Question: What about the IC50 ([9]; snb-75) of the same molecule?
Answer: The IC50 was 48 µM.

Question: What about the IC50 ([10]; hcc1187) of the same molecule?
Answer: Its IC50 is 117 µM.

Question: What about the IC50 [11] of the same molecule?
Answer: Its IC50 is 11.9 µM.

Question: What about the IC50 ([12]; del) of the same molecule?
Answer: The IC50 was 3.67 µM.

Question: And the IC50 ([13]; sw684)?
Answer: The IC50 was 590 µM.

Question: What about the IC50 ([14]; ec-gi-10) of the same molecule?
Answer: Its IC50 is 13.2 µM.

Question: What about the IC50 ([15]; c2bbe1) of the same molecule?
Answer: The IC50 was 97 µM.

Question: What about the IC50 ([16]; nci-h1648) of the same molecule?
Answer: Its IC50 is 69.7 µM.

Question: And the IC50 ([17]; lb373-mel-d)?
Answer: Its IC50 is 11 µM.

Question: And the IC50 ([18]; ls-1034)?
Answer: Its IC50 is 22.7 µM.

Question: And the IC50 ([19]; rh-1)?
Answer: Its IC50 is 333 µM.

Question: And the IC50 [20]?
Answer: The IC50 was 77.8 µM.

Question: And the IC50 ([21]; ist-sl1)?
Answer: Its IC50 is 70.6 µM.

Question: And the IC50 ([22]; colo-320-hsr)?
Answer: The IC50 was 338 µM.

Question: And the IC50 ([23]; bb30-hnc)?
Answer: The IC50 was 24.5 µM.

Question: And the IC50 ([24]; nci-h1581)?
Answer: Its IC50 is 12.2 µM.

Question: And the IC50 ([25]; j-rt3-t3-5)?
Answer: The IC50 was 148 µM.

Question: What about the IC50 ([26]; ccrf-cem) of the same molecule?
Answer: The IC50 was 96 µM.

Question: And the IC50 ([27]; rko)?
Answer: Its IC50 is 66.8 µM.

Question: And the IC50 ([28]; colo-829)?
Answer: The IC50 was 7.27 µM.

Question: And the IC50 ([29]; ew-18)?
Answer: Its IC50 is 35.2 µM.

Question: And the IC50 ([30]; nb5)?
Answer: Its IC50 is 5.48 µM.

Question: And the IC50 ([31]; nomo-1)?
Answer: Its IC50 is 123 µM.

Question: And the IC50 ([32]; db)?
Answer: The IC50 was 2.14 µM.

Question: What about the IC50 ([33]; karpas-45) of the same molecule?
Answer: Its IC50 is 361 µM.

Question: What about the IC50 ([34]; gr-st) of the same molecule?
Answer: Its IC50 is 7.5 µM.

Question: What about the IC50 ([35]; a704) of the same molecule?
Answer: Its IC50 is 115 µM.

Question: And the IC50 ([36]; mmac-sf)?
Answer: Its IC50 is 531 µM.

Question: What about the IC50 ([37]; ke-37) of the same molecule?
Answer: Its IC50 is 31.5 µM.

Question: And the IC50 ([38]; kals-1)?
Answer: The IC50 was 71.1 µM.

Question: And the IC50 ([39]; jvm-3)?
Answer: The IC50 was 39.7 µM.

Question: And the IC50 ([40]; hcc2218)?
Answer: Its IC50 is 398 µM.

Question: And the IC50 ([41]; a101d)?
Answer: The IC50 was 21.7 µM.

Question: What about the IC50 ([42]; kgn) of the same molecule?
Answer: Its IC50 is 17.6 µM.

Question: And the IC50 ([43]; ramos-2g6-4c10)?
Answer: Its IC50 is 26.5 µM.

Question: And the IC50 ([44]; mn-60)?
Answer: The IC50 was 58.4 µM.

Question: What about the IC50 ([45]; nci-h1355) of the same molecule?
Answer: The IC50 was 6.63 µM.

Question: And the IC50 ([46]; sf-268)?
Answer: The IC50 was 5.12 µM.

Question: `CC(=O)O[C@H]1C(=O)[C@@]2(C)[C@H]([C@H](OC(=O)c3ccccc3)[C@]3(O)C[C@H](OC(=O)[C@H](O)[C@@H](NC(=O)c4ccccc4)c4ccccc4)C(C)=C1C3(C)C)[C@]1(OC(C)=O)CO[C@@H]1C[C@@H]2O` [PACLITAXEL] was tested. Which IC50 ([1]; Homo sapiens, EKVX) did it give?
Answer: The IC50 was over 0.102 µM.

Question: And the IC50 ([2]; Homo sapiens, KINGS-1)?
Answer: The IC50 was 0.0236 µM.

Question: What about the IC50 ([3]; Homo sapiens, MFH-ino) of the same molecule?
Answer: Its IC50 is 0.00268 µM.

Question: What about the IC50 ([4]; Homo sapiens, MOLT-16) of the same molecule?
Answer: Its IC50 is 0.0215 µM.

Question: What about the IC50 ([5]; Homo sapiens, DOHH-2) of the same molecule?
Answer: Its IC50 is 0.012 µM.

Question: And the IC50 ([6]; Homo sapiens, HT-144)?
Answer: Its IC50 is 0.008 µM.

Question: And the IC50 ([7]; Homo sapiens, RXF 393)?
Answer: The IC50 was 0.0126 µM.

Question: And the IC50 ([8]; Homo sapiens, ES4)?
Answer: The IC50 was 0.00449 µM.

Question: What about the IC50 ([9]; Homo sapiens, SNB-75) of the same molecule?
Answer: The IC50 was 0.0154 µM.

Question: What about the IC50 ([10]; Homo sapiens, HCC1187) of the same molecule?
Answer: The IC50 was 0.0192 µM.

Question: What about the IC50 ([12]; Homo sapiens, DEL) of the same molecule?
Answer: The IC50 was 0.00845 µM.

Question: And the IC50 ([13]; Homo sapiens, SW684)?
Answer: Its IC50 is over 0.102 µM.

Question: What about the IC50 ([14]; Homo sapiens, EC-GI-10) of the same molecule?
Answer: Its IC50 is 0.0726 µM.

Question: What about the IC50 ([15]; Homo sapiens, C2BBe1) of the same molecule?
Answer: Its IC50 is over 0.102 µM.

Question: And the IC50 ([16]; Homo sapiens, NCI-H1648)?
Answer: Its IC50 is 0.00469 µM.

Question: And the IC50 ([17]; Homo sapiens, LB373-MEL-D)?
Answer: The IC50 was 0.0411 µM.

Question: And the IC50 ([18]; Homo sapiens, LS-1034)?
Answer: The IC50 was 0.0804 µM.

Question: What about the IC50 [47] of the same molecule?
Answer: The IC50 was 0.0174 µM.

Question: What about the IC50 ([19]; Homo sapiens, RH-1) of the same molecule?
Answer: Its IC50 is 0.0382 µM.

Question: What about the IC50 ([20]; Homo sapiens) of the same molecule?
Answer: The IC50 was 0.00362 µM.

Question: What about the IC50 ([21]; Homo sapiens, IST-SL1) of the same molecule?
Answer: Its IC50 is 0.0304 µM.

Question: And the IC50 ([22]; Homo sapiens, COLO-320-HSR)?
Answer: Its IC50 is over 0.102 µM.

Question: What about the IC50 ([23]; Homo sapiens, BB30-HNC) of the same molecule?
Answer: Its IC50 is 0.00314 µM.

Question: What about the IC50 ([24]; Homo sapiens, NCI-H1581) of the same molecule?
Answer: The IC50 was 0.0495 µM.

Question: What about the IC50 ([25]; Homo sapiens, J-RT3-T3-5) of the same molecule?
Answer: The IC50 was 0.0238 µM.

Question: What about the IC50 ([26]; Homo sapiens, CCRF-CEM) of the same molecule?
Answer: Its IC50 is 0.00871 µM.

Question: And the IC50 ([27]; Homo sapiens, RKO)?
Answer: The IC50 was 0.00298 µM.

Question: And the IC50 ([28]; Homo sapiens, COLO-829)?
Answer: The IC50 was over 0.102 µM.

Question: What about the IC50 ([29]; Homo sapiens, EW-18) of the same molecule?
Answer: The IC50 was over 0.102 µM.

Question: What about the IC50 ([30]; Homo sapiens, NB5) of the same molecule?
Answer: The IC50 was over 0.102 µM.

Question: And the IC50 ([31]; Homo sapiens, NOMO-1)?
Answer: Its IC50 is 0.0928 µM.

Question: What about the IC50 ([32]; Homo sapiens, DB) of the same molecule?
Answer: Its IC50 is over 0.102 µM.

Question: And the IC50 ([33]; Homo sapiens, KARPAS-45)?
Answer: Its IC50 is 0.0127 µM.

Question: What about the IC50 ([34]; Homo sapiens, GR-ST) of the same molecule?
Answer: Its IC50 is 0.0562 µM.

Question: What about the IC50 [48] of the same molecule?
Answer: The IC50 was over 0.102 µM.

Question: What about the IC50 ([35]; Homo sapiens, A704) of the same molecule?
Answer: Its IC50 is over 0.102 µM.

Question: What about the IC50 ([36]; Homo sapiens, MMAC-SF) of the same molecule?
Answer: Its IC50 is 0.0453 µM.

Question: What about the IC50 ([37]; Homo sapiens, KE-37) of the same molecule?
Answer: The IC50 was 0.0123 µM.

Question: And the IC50 ([38]; Homo sapiens, KALS-1)?
Answer: The IC50 was 0.00308 µM.

Question: And the IC50 ([39]; Homo sapiens, JVM-3)?
Answer: Its IC50 is over 0.102 µM.

Question: And the IC50 [49]?
Answer: Its IC50 is 0.0648 µM.

Question: What about the IC50 ([40]; Homo sapiens, HCC2218) of the same molecule?
Answer: The IC50 was over 0.102 µM.

Question: And the IC50 ([41]; Homo sapiens, A101D)?
Answer: Its IC50 is 0.0096 µM.

Question: What about the IC50 ([42]; Homo sapiens, KGN) of the same molecule?
Answer: Its IC50 is 0.00712 µM.

Question: What about the IC50 ([43]; Homo sapiens, Ramos-2G6-4C10) of the same molecule?
Answer: The IC50 was over 0.102 µM.

Question: And the IC50 ([44]; Homo sapiens, MN-60)?
Answer: Its IC50 is over 0.102 µM.

Question: What about the IC50 ([45]; Homo sapiens, NCI-H1355) of the same molecule?
Answer: The IC50 was 0.00914 µM.

Question: What about the IC50 ([46]; Homo sapiens, SF-268) of the same molecule?
Answer: The IC50 was 0.0115 µM.
